Test results published in PubChem BioAssay (NCI).
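Grown in 96-well plates, cells were treated for 48 hours with each compound at five concentrations. Insufficient inhibition: endpoint recorded as highest concentration tested. TGI is the concentration that stops growth completely.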

Tests used:
Assay in all cases: inhibition of tumour cell growth, NCI panel, 48 h
[1] = system: CCRF-CEM leukemia
[2] = system: DLD-1 colon
[3] = system: SK-MEL-2 melanoma
[4] = system: CAKI-1 renal
[5] = system: SN12C renal
[6] = system: HOP-62 NSCLC
[7] = system: EKVX NSCLC
[8] = system: OVCAR-8 ovarian
[9] = system: KM20L2 colon
[10] = system: DMS 114 small cell lung
[11] = system: UACC-62 melanoma
[12] = system: IGROV1 ovarian
[13] = system: MOLT-4 leukemia
[14] = system: A498 renal
[15] = system: HCC-2998 colon
[16] = system: NCI-H23 lung
[17] = system: SN12K1 renal
[18] = system: TK-10 renal
[19] = system: LXFL 529 NSCLC
[20] = system: ACHN renal

Measured: TGI

Cc1c(N=NN(C)C)cc[n+]([O-])c1C
> 100 µM: [1] | [2] | [3] | [4] | [5] | [6] | [7] | [8] | [9] | [10] | [11] | [12] | [13] | [14] | [15] | [16] | [17]

COC(=O)C1C(O)C(C)C(O)OC1C(C)C(O)C(C)/C=C\C=C(/C)C(=O)Nc1c(C)c(OC(C)=O)c2c(c1O)C(=O)C(C)=C1OCOC(/C(C)=C/C(C)=O)=C12 (stereo not drawn)
34.4 µM: [1]
33.3 µM: [13]
24.4 µM: [9]
34 µM: [4]
25.6 µM: [17]
20.5 µM: [7]
20.9 µM: [3]
27.8 µM: [16]
23.5 µM: [6]
26.5 µM: [12]
30.7 µM: [8]
27.5 µM: [10]
19.4 µM: [2]
30.6 µM: [14]
26.3 µM: [15]
21.5 µM: [5]
31.1 µM: [11]

O=C1CSC(C(N=Nc2ccc(Cl)cc2)c2nc3ccccc3[nH]2)=N1 (stereo not drawn)
> 100 µM: [1] | [2] | [4] | [5] | [6] | [18] | [7] | [8] | [9] | [19] | [11] | [14] | [15] | [20] | [16]
58.5 µM: [10]
39.8 µM: [13]
41.8 µM: [3]

Cn1c(=O)c2nc(NCCO)cnc2n(C)c1=O
> 100 µM: [1] | [2] | [3] | [4] | [5] | [6] | [18] | [7] | [8] | [9] | [10] | [19] | [11] | [12] | [13] | [14] | [15] | [20] | [16]

CC(C)[C@](O)(C(=O)OCC1=CCN2CC[C@@H](O)[C@@H]12)[C@H](C)O
> 375 µM: [1] | [2] | [3] | [4] | [5] | [6] | [7] | [8] | [9] | [10] | [11] | [12] | [13] | [14] | [15] | [16] | [17]
